Results from patent US20100298141A1, “SUBSTITUTED PYRIDINE N-OXIDE HERBICIDES” (E. I. DU PONT DE NEMOURS AND COMPANY, priority 2007, published 2010).

Legend:
morningglory = experiment: Test A pre-/postemergence greenhouse test; type: in vivo, Ipomoea spp.; settings: for Morningglory plant response rating: 0 to 100 scale
Outline: (§1)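 Pots of loam–sand soil sown with the test species are sprayed preemergence on the soil surface; emerged seedlings (1–2 leaves, 2–10 cm) are sprayed postemergence at the same time. The vehicle is a non-phytotoxic solvent mixture with surfactant. Injury is scored visually after ~10 d in greenhouse.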

woolly cupgrass = experiment: Test C pre-/postemergence test; type: in vivo, Eriochloa villosa
Outline: (§2)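 Seeds were planted and treated preemergence with test chemical in a non-phytotoxic solvent mixture containing surfactant. Postemergence applications of the same formulation went onto plants 2 to 18 cm tall (1- to 4-leaf stage). A dash marks no test result.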

kochia = experiment: Test C pre-/postemergence test; type: in vivo, Kochia scoparia
Outline: as §2

Surinam grass = experiment: Test C pre-/postemergence test; type: in vivo, Brachiaria decumbens
Outline: as §2

blackgrass = experiment: Test C pre-/postemergence test; type: in vivo, Alopecurus myosuroides
Outline: as §2

cocklebur = experiment: Test C pre-/postemergence test; type: in vivo, Xanthium strumarium
Outline: as §2

catchweed bedstraw = experiment: Test C pre-/postemergence test; type: in vivo, Galium aparine
Text: Seeds of plant species selected from blackgrass (Alopecurus myosuroides), downy brome (Bromus tectorum), green foxtail (Setaria viridis), Italian ryegrass (Lolium multiflorum), wheat (Triticum aestivum), wild oat (Avena fatua), catchweed bedstraw (Galium aparine), Russian thistle (Salsola kali), […] (Cynodon dactylon), Surinam grass (Brachiaria decumbens), cocklebur (Xanthium strumarium), corn (Zea mays), crabgrass (Digitaria sanguinalis), woolly cupgrass (Eriochloa villosa), giant foxtail (Setaria faberii), Goosegrass (Eleusin indica), johnsongrass (Sorghum halepense), kochia (Kochia scoparia), lambsquarters (Chenopodium album), morningglory (Ipomoea coccinea), eastern black nightshade (Solanum ptycanthum), yellow nutsedge (Cyperus esculentus), pigweed (Amaranthus retroflexus), common ragweed (Ambrosia elation), soybean (Glycine max), common (oilseed) sunflower (Helianthus annuus), and velvetleaf (Abutilon theophrasti) were planted and treated preemergence with test chemicals formulated in a non-phytotoxic solvent mixture which included a surfactant. At the same time, plants selected from these crop and weed species and also winter barley (Hordeum vulgare), canarygrass (Phalaris minor), and chickweed (Stellaria media) were treated with postemergence applications of some of the test chemicals formulated in the same manner. Plants ranged in height from 2 to 18 cm (1- to 4-leaf stage) for postemergence treatments. […] At time of treatment, test pots were flooded to 3 cm above the soil surface, treated by application of test compounds directly to the paddy water, and then maintained at that water depth for the duration of the test. […] A dash (-) response means no test result.

giant foxtail [1] = experiment: Test C pre-/postemergence test; type: in vivo, Setaria faberii
Outline: as §2

common ragweed = experiment: Test C pre-/postemergence test; type: in vivo, Ambrosia elation
Outline: as §2

wheat [2] = experiment: Test A pre-/postemergence greenhouse test; type: in vivo, Triticum aestivum; settings: for Wheat plant response rating: 0 to 100 scale
Outline: as §1

redroot pigweed = experiment: Test A pre-/postemergence greenhouse test; type: in vivo, Amaranthus retroflexus; settings: for Pigweed plant response rating: 0 to 100 scale
Outline: as §1

velvetleaf = experiment: Test C pre-/postemergence test; type: in vivo, Abutilon theophrasti
Outline: as §2

wild oat = experiment: Test C pre-/postemergence test; type: in vivo, Avena fatua
Outline: as §2

wheat [3] = experiment: Test C pre-/postemergence test; type: in vivo, Triticum aestivum
Outline: as §2

lambsquarters = experiment: Test C pre-/postemergence test; type: in vivo, Chenopodium album
Outline: as §2

downy brome = experiment: Test C pre-/postemergence test; type: in vivo, Bromus tectorum
Outline: as §2

[4] = tested on: common (oilseed) sunflower; experiment: Test C pre-/postemergence test; type: in vivo, Helianthus annuus
Outline: as §2

eastern black nightshade = experiment: Test C pre-/postemergence test; type: in vivo, Solanum ptycanthum
Outline: as §2

giant foxtail [5] = experiment: Test A pre-/postemergence greenhouse test; type: in vivo, Setaria faberi; settings: for Foxtail, Giant plant response rating: 0 to 100 scale
Outline: as §1

[6] = Postemergence, 125 g ai/ha, 0 to 100 scale where 0 is no effect and 100 is complete control
[7] = Postemergence, 500 g ai/ha, 0 is no effect, 100 is complete control
[8] = Preemergence, 125 g ai/ha, 0 no effect, 100 complete control
[9] = Preemergence, 500 g ai/ha, 0 no effect, 100 complete control
[10] = 62 g ai/ha, Preemergence, scale 0 to 100
[11] = 125 g ai/ha, preemergence, scale 0 (no effect) to 100 (complete control)
[12] = Preemergence, 31 g ai/ha, scale 0 to 100 (0 no effect, 100 complete control)
[13] = preemergence, 250 g ai/ha, scale 0 (no effect) to 100 (complete control)

## CCc1cc[n+]([O-])c(S(=O)(=O)Cc2c(C(F)(F)F)nn(C)c2OC(F)F)c1 [Compound 102]
morningglory; [6]
  Plant response rating, Morningglory: 50
morningglory; [7]
  Morningglory plant response rating: 100
morningglory; [8]
  Morningglory plant response rating: 100
morningglory; [9]
  Morningglory plant response rating: 100
Woolly cupgrass; [10]
  Cupgrass, Woolly plant response rating: 85
Woolly cupgrass; [11]
  Cupgrass, Woolly plant response rating: 85
Woolly cupgrass; [12]
  Plant response rating, Cupgrass, Woolly: 50
Woolly cupgrass; [13]
  Cupgrass, Woolly plant response rating: 95
kochia; [10]
  Kochia plant response rating: 70
kochia; [11]
  Kochia plant response rating: 100
kochia; [12]
  Plant response rating, Kochia: 70
kochia; [13]
  Kochia plant response rating: 100
Surinam grass; [10]
  Surinam Grass plant response rating: 70
Surinam grass; [11]
  Surinam Grass plant response rating: 70
Surinam grass; [12]
  Plant response rating, Surinam Grass: 65
Surinam grass; [13]
  Surinam Grass plant response rating: 95
blackgrass; [10]
  Blackgrass plant response rating: 80
blackgrass; [11]
  Blackgrass plant response rating: 80
blackgrass; [12]
  Plant response rating, Blackgrass: 10
cocklebur; [10]
  Cocklebur plant response rating: 0
cocklebur; [11]
  Cocklebur plant response rating: 0
cocklebur; [12]
  Plant response rating, Cocklebur: 0
cocklebur; [13]
  Cocklebur plant response rating: 0
Catchweed bedstraw; [10]
  Galium plant response rating: 95
Catchweed bedstraw; [11]
  Galium plant response rating: 100
Catchweed bedstraw; [12]
  Plant response rating, Galium: 30
Catchweed bedstraw; [13]
  Galium plant response rating: 100
Giant foxtail [1]; [10]
  Foxtail, Giant plant response rating: 70
Giant foxtail [1]; [11]
  Foxtail, Giant plant response rating: 85
Giant foxtail [1]; [12]
  Plant response rating, Foxtail, Giant: 60
Giant foxtail [1]; [13]
  Foxtail, Giant plant response rating: 85
Common ragweed; [10]
  Ragweed plant response rating: 80
Common ragweed; [11]
  Ragweed plant response rating: 85
Common ragweed; [12]
  Plant response rating, Ragweed: 75
Common ragweed; [13]
  Ragweed plant response rating: 95
Wheat [2]; [6]
  Plant response rating, Wheat: 50
Wheat [2]; [7]
  Wheat plant response rating: 60
Wheat [2]; [8]
  Wheat plant response rating: 50
Wheat [2]; [9]
  Wheat plant response rating: 100
Redroot pigweed; [6]
  Plant response rating, Pigweed: 70
Redroot pigweed; [7]
  Pigweed plant response rating: 100
Redroot pigweed; [8]
  Pigweed plant response rating: 100
Redroot pigweed; [9]
  Pigweed plant response rating: 100
velvetleaf; [10]
  Velvetleaf plant response rating: 30
velvetleaf; [11]
  Velvetleaf plant response rating: 80
velvetleaf; [12]
  Plant response rating, Velvetleaf: 0
velvetleaf; [13]
  Velvetleaf plant response rating: 95
Wild oat; [10]
  Oat, Wild plant response rating: 70
Wild oat; [11]
  Oat, Wild plant response rating: 90
Wild oat; [12]
  Plant response rating, Oat, Wild: 35
Wild oat; [13]
  Oat, Wild plant response rating: 95
Wheat [3]; [10]
  Wheat plant response rating: 0
Wheat [3]; [11]
  Wheat plant response rating: 40
Wheat [3]; [12]
  Plant response rating, Wheat: 0
Wheat [3]; [13]
  Wheat plant response rating: 90
lambsquarters; [10]
  Lambsquarters plant response rating: 80
lambsquarters; [11]
  Lambsquarters plant response rating: 100
lambsquarters; [12]
  Plant response rating, Lambsquarters: 40
lambsquarters; [13]
  Lambsquarters plant response rating: 100
Downy brome; [10]
  Bromegrass, Downy plant response rating: 100
Downy brome; [11]
  Bromegrass, Downy plant response rating: 100
Downy brome; [12]
  Plant response rating, Bromegrass, Downy: 50
Downy brome; [13]
  Bromegrass, Downy plant response rating: 100
[4]; [10]
  Sunflower plant response rating: 0
[4]; [11]
  Sunflower plant response rating: 60
[4]; [13]
  Sunflower plant response rating: 80
Eastern black nightshade; [10]
  Nightshade plant response rating: 90
Eastern black nightshade; [11]
  Nightshade plant response rating: 95
Eastern black nightshade; [12]
  Plant response rating, Nightshade: 85
Eastern black nightshade; [13]
  Nightshade plant response rating: 98
Giant foxtail [5]; [6]
  Plant response rating, Foxtail, Giant: 80
Giant foxtail [5]; [7]
  Foxtail, Giant plant response rating: 90
Giant foxtail [5]; [8]
  Foxtail, Giant plant response rating: 90
Giant foxtail [5]; [9]
  Foxtail, Giant plant response rating: 100
